Measurements: patent US20060173048A1, “Imidazole derivatives” (priority 2005, published 2006)

Assays:
rat mGlu2 receptor = molecular target: T1, rat mGlu2 receptor (Rattus norvegicus, UniProt P31421); test: [3H]-LY354740 binding on mGlu2 transfected CHO cell membranes; conditions: displacement of 10 nM [3H]-LY354740, membranes of CHO cells transfected with rat mGlu2, room temperature, 1 hour
T1 construct: expressed in transfected cells; host or cells: CHO cells, stably transfected (G-418 selection); membranes were prepared from them
T1 sequence (P31421 19-872): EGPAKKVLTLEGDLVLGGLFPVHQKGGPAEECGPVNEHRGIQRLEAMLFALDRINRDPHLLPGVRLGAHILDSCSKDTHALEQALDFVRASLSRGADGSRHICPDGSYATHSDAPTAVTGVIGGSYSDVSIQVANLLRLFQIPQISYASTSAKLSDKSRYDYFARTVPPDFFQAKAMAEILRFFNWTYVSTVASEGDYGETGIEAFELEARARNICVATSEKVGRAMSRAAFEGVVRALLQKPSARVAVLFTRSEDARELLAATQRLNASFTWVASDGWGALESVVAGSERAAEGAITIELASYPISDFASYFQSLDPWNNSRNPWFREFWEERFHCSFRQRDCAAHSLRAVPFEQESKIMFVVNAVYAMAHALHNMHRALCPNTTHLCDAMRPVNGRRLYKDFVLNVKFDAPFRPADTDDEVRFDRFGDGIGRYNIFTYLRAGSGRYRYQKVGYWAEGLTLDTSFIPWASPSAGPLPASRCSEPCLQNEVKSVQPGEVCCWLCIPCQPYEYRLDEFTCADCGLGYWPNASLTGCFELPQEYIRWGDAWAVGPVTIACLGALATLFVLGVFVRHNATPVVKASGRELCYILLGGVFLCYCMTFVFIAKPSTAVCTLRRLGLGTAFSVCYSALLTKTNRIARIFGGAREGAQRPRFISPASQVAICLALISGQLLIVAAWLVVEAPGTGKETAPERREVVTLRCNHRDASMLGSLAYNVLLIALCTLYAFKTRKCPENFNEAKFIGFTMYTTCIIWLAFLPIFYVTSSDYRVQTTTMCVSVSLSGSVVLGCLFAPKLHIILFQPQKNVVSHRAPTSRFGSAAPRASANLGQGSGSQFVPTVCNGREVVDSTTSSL
Text: [^3H]-LY354740 Binding on mGlu2 Transfected CHO Cell Membranes. Transfection and Cell Culture
cDNA encoding the rat mGlu2 receptor protein in pBluescript II was subcloned into the eukaryotic expression vector pcDNA I-amp from Invitrogen Ltd (Paisley, UK). This vector construct (pcD1mGR^2) was co-transfected with a psvNeo plasmid encoding the gene for neomycin resistance, into CHO cells by a modified calcium phosphate method described by Chen & Okayama (1988). The cells were maintained in Dulbecco's Modified Eagle medium with reduced L-glutamine (2 mM final concentration) and 10% dialysed foetal calf serum from Gibco-Invitrogen (Carlsbad, Calif., USA). Selection was made in the presence of G-418 (1000 ug/ml final) and […]. Clones were identified by reverse transcription of 5 μg total RNA, followed by PCR using mGlu2 receptor specific primers 5′-[…]-3′ and 540 -[…]-3′ in 60 mM Tris HCl (pH 10), 15 mM (NH4)2SO4, 2 mM MgCl2, 25 units/ml Taq Polymerase with 30 cycles annealing at 60° C. for 1 min., extention at 72° C. for 30 s, and 1 min. 95° C. denaturation.
Cells, cultured as above, were harvested and washed three times with cold PBS and frozen at −80° C. The pellet was resuspended in cold 20 mM HEPES-NaOH buffer containing 10 mM EDTA (pH 7.4), and homogenised with a polytron (Kinematica, AG, Littau, Switzerland) for 10 s at 10 000 rpm. After centrifugation for 30 min. at 4° C., the pellet was washed once with the same buffer, and once with cold 20 mM HEPES-NaOH buffer containing 0.1 mM EDTA, (pH 7.4). Protein content was measured using the micro BCA method from Pierce-Perbio (Rockford, Ill., USA) using bovine serum albumin as standard.
After thawing, the membranes were resuspended in cold 50 mM Tris-HCl buffer containing 2 mM MgCl2 (pH 7) (binding buffer). The final concentration of the membranes in the assays was 25 μg protein/ml. Inhibition experiments were performed with membranes incubated with 10 nM [^3H]-LY354740 at room temperature, for 1 hour, in presence of various concentrations of the compound to be tested. Following the incubations, membranes were filtered onto Whatmann GF/B glass fiber filters and washed 5 times with cold binding buffer. Non specific binding was measured in the presence of 10 μM DCG IV. After transfer of the filters into plastic vials containing 10 ml of Ultima-gold scintillation fluid from Perkin-Elmer (Boston, Mass., USA), the radioactivity was measured by liquid scintillation in a Tri-Carb 2500 TR counter (Packard, Zürich, Switzerland).
The inhibition curves were fitted with a four parameter logistic equation giving IC50 values, and Hill coefficients.

Ki (rat mGlu2 receptor) [µM]	melting point [°C]	SMILES
0.018	221 to 224	CCn1c(C(O)(C2CCCCC2)C2CCCCC2)nc(-c2ccncc2)c1-c1ccc(Cl)cc1 [Example 47, [5-(4-Chloro-phenyl)-1-ethyl-4-pyridin-4-yl-1H-imidazol-2-yl]-dicyclohexyl-methanol]
0.013	191 to 193	CCn1c(-c2c(Cl)cccc2Cl)nc(-c2ccncc2)c1-c1ccc(C)cc1 [Example 11, 4-[2-(2,6-Dichloro-phenyl)-1-ethyl-5-(4-methyl-phenyl)-1H-imidazol-4-yl]-pyridine]
0.063		Cc1cc(C)c(-c2nc(-c3ccncc3)c(-c3ccc(Cl)cc3)n2CCO)c(C)c1 [Example 26, 2-[5-(4-Chloro-phenyl)-4-pyridin-4-yl-2-(2,4,6-trimethyl-phenyl)-imidazol-1-yl]-ethanol]
0.034	147 to 149	C=CCn1c(-c2c(Cl)cccc2Cl)nc(-c2ccncc2)c1-c1ccc(C)cc1 [Example 19, 4-[1-Allyl-2-(2,6-dichloro-phenyl)-5-(4-methyl-phenyl)-1H-imidazol-4-yl]-pyridine]
	173 to 175	CCn1c(-c2ccccc2C)nc(-c2ccncc2)c1-c1ccc(Cl)cc1 [Example 8, 4-[5-(4-Chloro-phenyl)-1-ethyl-2-(2-methyl-phenyl)-1H-imidazol-4-yl]-pyridine]
	100 to 102	CCC(CC)c1nc(-c2ccncc2)c(-c2ccc(Cl)cc2)n1C [Example 36, 4-[5-(4-Chloro-phenyl)-2-(1-ethyl-propyl)-1-methyl-1H-imidazol-4-yl]-pyridine]

Continued, molecule first:

SMILES	Ki (rat mGlu2 receptor) [µM]	melting point [°C]
Cn1c(-c2c(Cl)cccc2Cl)nc(-c2ccncc2)c1-c1ccc(Cl)cc1 [Example 3, 4-[5-(4-Chloro-phenyl)-2-(2,6-dichloro-phenyl)-1-methyl-1H-imidazol-4-yl]-pyridine]	0.007	257 to 260
CCn1c(C(O)(C2CC2)C2CC2)nc(-c2ccncc2)c1-c1ccc(Cl)cc1 [Example 43, [5-(4-Chloro-phenyl)-1-ethyl-4-pyridin-4-yl-1H-imidazol-2-yl]-dicyclopropyl-methanol]	0.111	185 to 188
Clc1ccc(-c2c(-c3ccncc3)nc(-c3c(Cl)cccc3Cl)n2C2CC2)cc1 [Example 27, 4-[5-(4-Chloro-phenyl)-1-cyclopropyl-2-(2,6-dichloro-phenyl)-1H-imidazol-4-yl]-pyridine]	0.021	210 to 211
CCCC(CCC)c1nc(-c2ccncc2)c(-c2ccc(Cl)cc2)n1CC [Example 37, 4-[5-(4-Chloro-phenyl)-1-ethyl-2-(1-propyl-butyl)-1H-imidazol-4-yl]-pyridine]	0.049	152 to 155
